Laboratory results from patent US20150291658A1, “NOVEL CHONDRAMIDE DERIVATIVES” (HELMOLTZ-ZENTRUM FÜR INFEKTIONSFORSCHUNG, priority 2012, published 2015).
Entries after “also recorded” stand apart in the source; their conditions may differ. Like-named read-outs stand apart in the source and are kept apart here.

How the values were obtained:
[1] = test system: panel of cell lines derived from various origins and tissues (cancer cell lines, non-cancerous cell lines, primary cells); test: Growth inhibition experiments (MTT, 5 d), panel of cell lines; type: cell-based; conditions: for growth inhibitory activity in cell lines (in words, compared to chondramides A~C / other derivatives): GI50-based comparison, panel of cell lines; for GI50 values on human cancer cell lines: cell-based studies
Protocol: First, the compounds were tested on a small panel of cell lines derived from various origins and tissues. GI50 values were compared to those determined using chondramides A˜C (see Table 1).
(§1) Cell lines were obtained from the American Type Culture Collection (ATCC) and the German Collection of Microorganisms and Cell Cultures (Deutsche Sammlung für Mikroorganismen and Zellkulturen, DSMZ), and HUVEC (single donor) were purchased from PromoCell. Cells were cultured under the conditions recommended by the respective depositor in a standard humidified incubator at 37° C. with 5% CO2.
(§2) Cells were seeded at 6×10^3 cells per well of 96-well plates (Corning CellBind®) in 180 μl complete medium and directly treated with chondramides dissolved in methanol in a serial dilution. Each compound was tested in duplicate for 5 d, as well as the internal methanol control. After 5 d incubation, 20 μl of 5 mg/ml MTT (Mosmann, T. (1983). Rapid Colorimetric Assay for Cellular Growth and Survival: Application to Proliferation and Cytotoxicity Assays. J. Immunol. Meth. 65, 55-63) in PBS was added per well and it was further incubated for 2 h at 37° C. The medium was then discarded and cells were washed with 100 μl PBS before adding 100 μl 2-propanol/10 N HCl (250:1) in order to dissolve formazan granules. The absorbance at 570 nm was measured using a microplate reader (EL808, Bio-Tek Instruments Inc.), and cell viability was expressed as percentage relative to the respective methanol control. GI50 values were obtained by sigmoidal curve fitting. Testing of fractions was performed likewise using 1.2×10^4 cells per well. Samples were dissolved in cell culture medium and cells were treated for 2 d before adding MTT. Viability was expressed relative to the untreated control.
These compounds were profiled regarding their growth inhibitory potential in a panel of cancer cell lines. Natural chondramide A was used as reference:
Biological evaluation of group A derivatives. GI50 values [nM] were determined in a small panel of cancer cell lines.

[2] = test system: KB-3.1: human cervical carcinoma; test: Growth inhibition experiments (GI50), KB-3.1; type: cell-based; conditions: for GI50 values KB-3.1: Table 1; for GI50 KB-3.1: group A derivatives, small panel of cancer cell lines, KB-3.1 human cervical carcinoma
[3] = test system: multidrug resistant (MDR) KB-V.1 cell line; test: Growth inhibition experiments (MTT, 5 d), KB-V.1; type: cell-based; conditions: Table 1
Protocol: Cancer Inst. 90, 1559-1563). […] The same applies for most novel derivatives, solely a hydroxyl group at C2′ of the polyketide segment instead of methoxy or simply hydrogen leads to an approximately 10-fold reduced potency. GI50 values of glycosylated derivatives were not determinable precisely in the assay's concentration range.
as §2

[4] = target: T1, pyrene-labeled rabbit muscle actin (Oryctolagus cuniculus, UniProt P68135); test: Actin polymerization assay (pyrene actin fluorescence); type: biochemical; conditions: 20 μM derivative, 5 μM pyrene actin, non-polymerizing buffer, followed over 85 min
T1 construct: pyrene-labeled rabbit muscle actin; purchased Cytoskeleton, Inc; host or cells: rabbit muscle (tissue-derived; inferred from the name)
Protocol: A final concentration of 20 μM for each derivative was chosen and polymerization was followed over 85 min.
Fluorescence-based actin polymerization assays were performed using pyrene muscle actin (Cytoskeleton, Inc.) according to the supplier's protocol. Chondramides were dissolved in non-polymerizing buffer (5 mM Tris-HCl pH 8.0, 0.2 mM CaCl2, 0.2 mM ATP, 1 mM DTT) and mixed with pyrene actin diluted in the same buffer to give a final concentration of 20 μM chondramide and 5 μM actin. Samples were prepared in black, low-volume 384-well plates (Corning, NBS™ surface). The fluorescence at 405 nm (excitation at 360 nm) was scanned every 30 s for 85 min at 37° C. on a microplate reader (Spectramax M5^e, Molecular Devices). Experiments were performed in duplicates and the average relative fluorescence of polymerizing pyrene actin is given. Slopes were calculated in the linear range of kinetic measurements.

[5] = test system: HUVEC, human umbilical vein endothelial cells (primary cells); test: Growth inhibition experiments (MTT, 5 d), HUVEC; type: cell-based; conditions: Table 1
Description: (§3) With primary cells (HUVEC, human umbilical vein endothelial cells) and the fibroblast cell line MRC5 this is not the case. Whereas chondramides A˜C are comparably active on both, cancer and non-cancerous cells, brominated chondramide C3 analogs are on average by factor 2-4 less toxic for non-cancerous cells. Accordingly they show a higher selectivity.
as §1, §2

[6] = test system: L-929; test: Growth inhibition experiments (GI50), L-929; type: cell-based; conditions: Table 1
[7] = test system: HCT-116 colon carcinoma cell line; test: Growth inhibition experiments (MTT, 5 d), HCT-116; type: cell-based, human
Protocol: as §2

[8] = test system: human U-2 OS osteosarcoma cell line; test: Growth inhibition experiments (MTT, 5 d), U-2 OS; type: cell-based
Protocol: as §2

[9] = test system: fibroblast cell line MRC5; test: Growth inhibition experiments (MTT, 5 d), MRC5; type: cell-based, human; conditions: Table 1
Protocol: as §3, §2

[10] = test system: RAW246.7: murine leukemic monocyte macrophages; test: Growth inhibition experiments (GI50), RAW246.7; type: cell-based; conditions: group A derivatives, small panel of cancer cell lines
[11] = Table 1, HCT-116, read-out: GI50 values HCT-116
[12] = Table 1, U-2 OS, read-out: GI50 values U-2 OS
[13] = group A derivatives, small panel of cancer cell lines, HCT-116 human colon carcinoma, read-out: GI50 HCT-116
[14] = group A derivatives, small panel of cancer cell lines, U-2 OS human osteosarcoma, read-out: GI50 U-2 OS

Structure (SMILES)	growth inhibitory activity in cell lines (in words, compared to chondramides A~C / other derivatives) [1]	GI50 values KB-3.1 [2]	GI50 values KB-V.1 [3]	actin-polymerizing effect (G-actin polymerization in vitro) [4]	GI50 values HUVEC [5]	GI50 [6] [nM]	GI50 values on human cancer cell lines [1]	GI50 [7, 11] [nM]	GI50 [8, 12] [nM]	GI50 [5] [nM]	GI50 [9] [nM]	GI50 [10] [nM]	GI50 [7, 13] [nM]	GI50 KB-3.1 [2] [nM]	GI50 [8, 14] [nM]	GI50 values L-929 [6]
COC1C(=O)OC(C)C(C)C=C(C)CC(C)C(=O)NC(C)C(=O)N(C)C(Cc2c(Cl)[nH]c3ccccc23)C(=O)NC1c1ccc(OC2OC(C(=O)O)C(O)C(O)C2O)c(Cl)c1 (centres unmarked) [Chondramide A10]	significantly reduced	w.a.	w.a.	slow increase in G-actin polymerization; also recorded: partly restore the ability to polymerize actin	w.a.	–	–	–	–	–	–	–	–	–	–	–
CCC1OC(=O)CC(c2ccc(O)c(Br)c2)NC(=O)C(Cc2c[nH]c3ccccc23)N(C)C(=O)C(C)NC(=O)C(C)CC(C)=CC1C (centres unmarked) [Propionyl-Bromo-Chondramide C3]	the most active in cell-based studies	38.0 ± 6.5 nM	31.9 ± 2.0 nM	–	–	23 ± 2.1	low nanomolar range	17.2 ± 1.6	9 ± 0.6	50.2 ± 5.6	130 ± 3.7	–	–	–	–	–
COC1C(=O)OC(C)C(C)C=C(C)CC(C)C(=O)NC(C)C(=O)N(C)C(Cc2c(Cl)[nH]c3ccccc23)C(=O)NC1c1ccc(O)c(Cl)c1 (centres unmarked) [Chondramide A4]	–	56.8 ± 7.0 nM	83.1 ± 1.6 nM	similarly potent; also recorded: increases the polymerization rate even more drastically	–	67.6 ± 9.8	–	44.4 ± 1.6	26.4 ± 2.2	52.5 ± 7.4	12.7 ± 1.4	–	–	–	–	–
CCC1OC(=O)CC(c2ccc(O)cc2)NC(=O)C(Cc2c[nH]c3ccccc23)N(C)C(=O)C(C)NC(=O)C(C)CC(C)=CC1C (centres unmarked) [Propionyl-Chondramide C1]	comparable to chondramides A˜C	56.3 ± 9.6 nM	22.7 ± 8.3 nM	significantly reduced actin-polymerizing effect	–	30 ± 7.7	–	42.1 ± 3.2	15.1 ± 1.1	54.6 ± 5.5	71.9 ± 4.1	–	–	–	–	–
COC1C(=O)OC(C)C(C)C=C(C)CC(C)C(=O)NC(C)C(=O)N(C)C(Cc2c[nH]c3ccccc23)C(=O)NC1c1ccc(O)c(Br)c1 (centres unmarked) [Bromo-Chondramide A3]	–	74.5 ± 14.2 nM	11.2 ± 0.4 nM	quickly polymerizes G-actin	–	69.4 ± 1.5	low nanomolar range	42.9 ± 3.2	37.7 ± 2.8	32.7 ± 2.9	44.5 ± 4.9	–	–	–	–	–
COC1C(=O)OC(C)C(C)C=C(C)CC(C)C(=O)NC(C)C(=O)N(C)C(Cc2c(Cl)[nH]c3ccccc23)C(=O)NC1c1ccc(OP(=O)(O)O)c(Cl)c1 (centres unmarked) [Chondramide A8]	comparable to chondramides A˜C	13.4 ± 3.0 nM	58.1 ± 4.0 nM	significantly reduced actin-polymerizing effect	–	56.2 ± 12.5	–	49.3 ± 7.6	33.2 ± 3.4	24.1 ± 7.9	7.6 ± 4.7	–	–	–	–	–
CCC1C/C=C(\C)CC(C)C(=O)NC(C)C(=O)N(C)C(C(C)C)C(=O)NC(c2ccc(O)c(Cl)c2)CC(=O)O1 (single isomer, unassigned) [CA6-Fr2]	–	–	–	–	–	–	–	–	–	–	–	105	101	74.5	65.4	–
CC1=CC(C)C(C)OC(=O)C(O)C(c2ccc(O)c(Cl)c2)NC(=O)C(Cc2c(Cl)[nH]c3ccccc23)N(C)C(=O)C(C)NC(=O)C(C)C1 (centres unmarked) [Chondramide E4]	–	627.2 ± 122.5 nM	251.5 ± 79.1 nM	decreased ability to polymerize actin	–	555 ± 81.6	–	379 ± 30.2	352 ± 30.6	207 ± 26.4	480 ± 63.6	–	–	–	–	–
COC1C(=O)OC(C)C(C)C=C(C)CC(C)C(=O)NC(C)C(=O)N(C)C(Cc2c[nH]c3ccccc23)C(=O)NC1c1ccc(OC2OC(C(=O)O)C(O)C(O)C2O)c(Cl)c1 (centres unmarked) [Chondramide A9]	significantly reduced	–	w.a.	does not show any actin-polymerizing effect	–	–	–	–	–	–	–	–	–	–	–	w.a.
CO[C@@H]1C(=O)O[C@H](C)[C@H](C)/C=C(\C)C[C@H](C)C(=O)N[C@@H](C)C(=O)N(C)[C@H](Cc2c[nH]c3ccccc23)C(=O)N[C@H]1c1ccc(O)cc1 [Chondramide A, reference compound]	–	50.5 ± 15.4 nM	38.0 ± 10.5 nM	–	–	90.9 ± 11.8	–	48.9 ± 14.6	27.1 ± 4.1	43.7 ± 7	63.8 ± 13	47.3	91.7	71.6	68.5	–
CCC1C/C=C(\C)CC(C)C(=O)NC(C)C(=O)N(C)C(Cc2c(Cl)[nH]c3ccccc23)C(=O)NC(c2ccc(O)c(Cl)c2)CC(=O)O1 (single isomer, unassigned) [CA7-Fr1]	–	–	–	–	–	–	–	–	–	–	–	74.7	16.3	97.9	53.5	–
